Assay results published in PubChem BioAssay (NCI).
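Cultured in 96-well plates, cells were exposed to test compound for 48 hours across five concentrations. The concentration for 50% growth inhibition is given as GI50. The concentration for full growth arrest is given as TGI.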

Legend:
Assay in all cases: NCI tumour cell line growth inhibition, 48 h
MDA-MB-231 breast = system: MDA-MB-231 breast
RPMI-8226 leukemia = system: RPMI-8226 leukemia
NCI-H226 lung = system: NCI-H226 lung
K-562 leukemia = system: K-562 leukemia
MCF7 breast = system: MCF7 breast
TK-10 renal = system: TK-10 renal
HCT-15 colon = system: HCT-15 colon
OVCAR-5 ovarian = system: OVCAR-5 ovarian
SW-620 colon = system: SW-620 colon
KM12 colon = system: KM12 colon
SF-295 CNS = system: SF-295 CNS
T-47D breast = system: T-47D breast
DU-145 prostate = system: DU-145 prostate
HOP-62 NSCLC = system: HOP-62 NSCLC
CAKI-1 renal = system: CAKI-1 renal
UO-31 renal = system: UO-31 renal
HOP-92 NSCLC = system: HOP-92 NSCLC
SF-539 CNS = system: SF-539 CNS
MDA-MB-435 = system: MDA-MB-435
OVCAR-3 ovarian = system: OVCAR-3 ovarian
NCI/ADR-RES ovarian = system: NCI/ADR-RES ovarian
UACC-257 melanoma = system: UACC-257 melanoma
EKVX NSCLC = system: EKVX NSCLC
RXF 393 renal = system: RXF 393 renal
BT-549 breast = system: BT-549 breast
HS 578T breast = system: HS 578T breast
A498 renal = system: A498 renal
SNB-75 CNS = system: SNB-75 CNS
U251 CNS = system: U251 CNS
NCI-H23 lung = system: NCI-H23 lung
A549 NSCLC = system: A549 NSCLC
ACHN renal = system: ACHN renal
OVCAR-8 ovarian = system: OVCAR-8 ovarian
MOLT-4 leukemia = system: MOLT-4 leukemia
SR leukemia = system: SR leukemia
HCT-116 colon = system: HCT-116 colon
SF-268 CNS = system: SF-268 CNS
SK-OV-3 ovarian = system: SK-OV-3 ovarian
M14 melanoma = system: M14 melanoma
SK-MEL-5 melanoma = system: SK-MEL-5 melanoma
SK-MEL-28 melanoma = system: SK-MEL-28 melanoma
PC-3 prostate = system: PC-3 prostate
OVCAR-4 ovarian = system: OVCAR-4 ovarian
HL-60(TB) leukemia = system: HL-60(TB) leukemia
CCRF-CEM leukemia = system: CCRF-CEM leukemia
SNB-19 CNS = system: SNB-19 CNS
HCC-2998 colon = system: HCC-2998 colon
SN12C renal = system: SN12C renal
UACC-62 melanoma = system: UACC-62 melanoma
IGROV1 ovarian = system: IGROV1 ovarian

COc1cc(-c2n/c(=C\c3c(O)[nH]c4ccc(Cl)cc34)cc3c2=Nc2ccccc2-3)ccc1F
GI50 (MDA-MB-231 breast): 1.56 µM
TGI (MDA-MB-231 breast): 3.22 µM
GI50 (RPMI-8226 leukemia): 6.75 µM
TGI (RPMI-8226 leukemia): > 100 µM
GI50 (NCI-H226 lung): 2.19 µM
TGI (NCI-H226 lung): 8.15 µM
GI50 (K-562 leukemia): 2.22 µM
TGI (K-562 leukemia): 5.98 µM
GI50 (MCF7 breast): 1.25 µM
TGI (MCF7 breast): 3.26 µM
GI50 (TK-10 renal): 2.51 µM
TGI (TK-10 renal): 4.43 µM
GI50 (HCT-15 colon): 2.49 µM
TGI (HCT-15 colon): 6.98 µM
GI50 (OVCAR-5 ovarian): 3.9 µM
TGI (OVCAR-5 ovarian): 13.3 µM
GI50 (SW-620 colon): 1.33 µM
TGI (SW-620 colon): 2.94 µM
GI50 (KM12 colon): 2.28 µM
TGI (KM12 colon): 5.01 µM
GI50 (SF-295 CNS): 2.34 µM
TGI (SF-295 CNS): 5.55 µM
GI50 (T-47D breast): 1.5 µM
TGI (T-47D breast): 3.5 µM
GI50 (DU-145 prostate): 2.18 µM
TGI (DU-145 prostate): 4.8 µM
GI50 (HOP-62 NSCLC): 1.17 µM
TGI (HOP-62 NSCLC): 2.52 µM
GI50 (CAKI-1 renal): 2.55 µM
TGI (CAKI-1 renal): 8.66 µM
GI50 (UO-31 renal): 1.12 µM
TGI (UO-31 renal): 2.5 µM
GI50 (HOP-92 NSCLC): 1.73 µM
TGI (HOP-92 NSCLC): 3.82 µM
GI50 (SF-539 CNS): 2.79 µM
TGI (SF-539 CNS): 9.87 µM
GI50 (MDA-MB-435): 2.16 µM
TGI (MDA-MB-435): 4.65 µM
GI50 (OVCAR-3 ovarian): 1.98 µM
TGI (OVCAR-3 ovarian): 4.06 µM
GI50 (NCI/ADR-RES ovarian): 2.03 µM
TGI (NCI/ADR-RES ovarian): 5.04 µM
GI50 (UACC-257 melanoma): 3.43 µM
TGI (UACC-257 melanoma): 10.9 µM
GI50 (EKVX NSCLC): 4.12 µM
TGI (EKVX NSCLC): 27.2 µM
GI50 (RXF 393 renal): 1.71 µM
TGI (RXF 393 renal): 3.29 µM
GI50 (BT-549 breast): 2.06 µM
TGI (BT-549 breast): 3.84 µM
GI50 (HS 578T breast): 2.07 µM
TGI (HS 578T breast): 5.92 µM
GI50 (A498 renal): 3.16 µM
TGI (A498 renal): 15.2 µM
GI50 (SNB-75 CNS): 1.69 µM
TGI (SNB-75 CNS): 4.6 µM
GI50 (U251 CNS): 1.58 µM
TGI (U251 CNS): 3.06 µM
GI50 (NCI-H23 lung): 1.73 µM
TGI (NCI-H23 lung): 3.42 µM
GI50 (A549 NSCLC): 1.76 µM
TGI (A549 NSCLC): 3.38 µM
GI50 (ACHN renal): 1.85 µM
TGI (ACHN renal): 3.76 µM
GI50 (OVCAR-8 ovarian): 2.03 µM
TGI (OVCAR-8 ovarian): 5.19 µM
GI50 (MOLT-4 leukemia): 1.08 µM
TGI (MOLT-4 leukemia): 3.32 µM
GI50 (SR leukemia): 1.08 µM
TGI (SR leukemia): 4.76 µM
GI50 (HCT-116 colon): 1.75 µM
TGI (HCT-116 colon): 3.34 µM
GI50 (SF-268 CNS): 2.05 µM
TGI (SF-268 CNS): 4.65 µM
GI50 (SK-OV-3 ovarian): 2.29 µM
TGI (SK-OV-3 ovarian): 5.3 µM
GI50 (M14 melanoma): 1.89 µM
TGI (M14 melanoma): 3.48 µM
GI50 (SK-MEL-5 melanoma): 2.84 µM
TGI (SK-MEL-5 melanoma): 10.8 µM
GI50 (SK-MEL-28 melanoma): 2.27 µM
TGI (SK-MEL-28 melanoma): 5.02 µM
GI50 (PC-3 prostate): 2 µM
TGI (PC-3 prostate): 5.88 µM
GI50 (OVCAR-4 ovarian): 1.74 µM
TGI (OVCAR-4 ovarian): 3.48 µM
GI50 (HL-60(TB) leukemia): 10.9 µM
TGI (HL-60(TB) leukemia): 34.7 µM
GI50 (CCRF-CEM leukemia): 2.39 µM
TGI (CCRF-CEM leukemia): > 100 µM
GI50 (SNB-19 CNS): 1.87 µM
TGI (SNB-19 CNS): 4.11 µM
GI50 (HCC-2998 colon): 2.94 µM
TGI (HCC-2998 colon): 8.81 µM
GI50 (SN12C renal): 1.78 µM
TGI (SN12C renal): 3.6 µM
GI50 (UACC-62 melanoma): 1.65 µM
TGI (UACC-62 melanoma): 3.2 µM
GI50 (IGROV1 ovarian): 2.07 µM
TGI (IGROV1 ovarian): 5.17 µM
